# Assay results: patent US20210379026A1, “METHODS FOR TREATING OR PREVENTING SKIN CONDITIONS” (Drexel University, priority 2018, published 2021)
# “Also recorded” adds a separate entry of the source.
# Experiments:
# human cells = test: Protection of cultured cells from UV-induced cell death; type: cell-based
# Description: Cells grown in the presence or absence of 1 nM rapamycin were exposed to increasing amounts of UV radiation and cell numbers were determined following 24 hours. […] In FIG. 9B, a representative photograph of the control culture 24 hours following UV is presented. Note the typical hallmarks of apoptosis including rounded floating cells and typical cell blebbing.
# human skin [1] = test: Histology (Hematoxylin Eosin stain) of dorsal hand skin biopsies after topical cream; type: in vivo; conditions: topical cream 10 μM vs placebo
# Description: (§1) Patients were provided with a proprietary topical formulation of rapamycin (0.001%; equivalent to 10 μM) or a placebo formulation that is identical with the exception that rapamycin was not included. For seborrheic keratosis, patients were instructed to apply the formulation to a localized area of the skin up to 1 cm around the lesion, in the evening before bed. Patients were instructed to apply the cream to the dorsal side of the hand once a day, in the evening before bed.
# (§2) The cream included the following ingredients: Polyoxyethylene (40) stearate, Polyoxyethylene (20) sorbitan monooleate, glycerol monostearate, paraffin, cetyl alcohol, mineral oil, water, propylene glycol, sorbitol, glycerol, methylparaben.
# (§3) Patients were provided with a 4 week supply of creams labeled by a number with no indication of whether they contained rapamycin. Patients were instructed to contact the study personnel if any irritation or negative reaction occurred at any time.
# Hematoxylin Eosin stain of human skin biopsies from the dorsal hand of a patient following the application of a topical cream either containing rapamycin (10 μM) or placebo are shown in FIG. 2. Histologic evidence of actinic (solar) elastoses is indicated with an arrow.
# 40× magnified images of human skin biopsies from the dorsal hand of a patient following the application of a topical cream either containing rapamycin (10 μM) or placebo are shown in FIG. 3.
# 40× magnified images of human skin biopsies from the dorsal hand of a patient following the application of a topical cream either containing rapamycin (10 μM) or placebo are shown in FIG. 4.
# cytokeratin 5/6 = test: Cytokeratin 5/6 staining of dorsal hand skin biopsies after topical cream; type: in vivo, human; conditions: topical cream 10 μM vs placebo, dorsal hand biopsy; FIG. 5 and FIG. 6 (40×)
# Description: as §1, §2
# Human skin biopsies from the dorsal hand of a patient following the application of a topical cream either containing rapamycin (10 μM) or placebo were stained with antibodies recognizing cytokeratin 5/6 (brown staining), which is a marker for basal cells in the epidermis.
# p16 = test: Nuclear p16 immunohistochemistry of human skin biopsies after topical treatment; type: in vivo; conditions: formulation of 1 micromolar rapamycin, 0.5 cc daily, 240 days, vs vehicle control; FIG. 1
# Description: Human skin was treated with a formulation of 1 micromolar rapamycin or an identical formulation containing a vehicle control for 240 days. 0.5 cc of the formulation was applied daily. Skin biopsies (N=8) were processed for immunohistochemistry and nuclear p16 was quantified using the Leica Aperio software system.
# human skin [2] = test: Clinical appearance of the hand after rapamycin cream versus placebo-treated hand; type: in vivo; conditions: 10 μM (0.001%) cream, 6 months, person, placebo on left hand; FIG. 7
# Description: as §1, §2, §3
# Placebo treated left hand is provided for comparison.
# purpura = test: Recurrent purpura in a patient under topical treatment; type: in vivo, human; conditions: 0.001%, 4.5 months, one person with recurrent purpura; FIG. 8
# Description: as §1
# A person was treated with rapamycin (0.001%) for 4.5 months. The patient was a cancer survivor, multiple round of chemotherapy, recurrent purpura with subsequent scarring. […] Treatment was discontinued at end of trial.
# [3] = dorsal hand biopsy, 40× images, FIG. 4
smiles,measurement,setting,value
CO[C@H]1C[C@@H]2CC[C@@H](C)[C@@](O)(O2)C(=O)C(=O)N2CCCC[C@H]2C(=O)O[C@H]([C@H](C)C[C@@H]2CC[C@@H](O)[C@H](OC)C2)CC(=O)[C@H](C)/C=C(\C)[C@@H](O)[C@@H](OC)C(=O)[C@H](C)C[C@H](C)/C=C/C=C/C=C/1C [rapamycin],cell death following UV irradiation (percent cell loss),"human cells; 1 nM rapamycin, increasing amounts of UV radiation, cell numbers after 24 hours, P=0.0044, FIG. 9A",reduction in cell death
same,apoptotic cells in culture after UV,"human cells; culture grown in 1 nM rapamycin, 24 hours following UV, FIG. 9C",notable lack of apoptotic cells
same,histological markers of aged/damaged skin (actinic (solar) elastoses),"human skin [1]; dorsal hand biopsies, multiple patients, FIG. 2",a reduction in the presence of these histological markers of aged/damaged skin
same,arrangement of the epithelial layer,"human skin [1]; dorsal hand biopsy, 40× images, FIG. 3",more orderly arrangement of the epithelial layer
same,arrangement of collagen fibers,human skin [1]; [3],more orderly arrangement of collagen fibers
same,solar elastoses,human skin [1]; [3],fewer solar elastoses
same,location of cytokeratin 5/6 (CK 5/6) staining in the epidermis,cytokeratin 5/6,more focally located in the basal layer of the skin; also recorded: remained restricted to the basal layer
same,"p16 levels in human skin (nuclear p16, immunohistochemistry)",p16,reduced the p16 levels in human skin
same,clinical improvement of the hand,human skin [2],clinical improvement
same,purpura,purpura,significant reduction in purpura
